Read-outs that look alike come from different tables or passages of the source. Where a SMILES comes first, the peptide text is derived from it. Bridges are numbered along the chain shown (N, C = ends).
Assays:
streptavidin = molecular target: T1, streptavidin (Streptomyces avidinii, UniProt P22629); assay: HABA-competitive binding determination, streptavidin-HABA complex
T1 construct: purchased Pierce
Experimental: (§1) After 60 minutes, the absorbance of the complex was monitored at 500 nm. To calculate the IC50s of the selected peptides, the average of three separate trials were fitted to the Hill equation, [formula] where [L] is the total ligand concentration, [L]F is free ligand concentration, [L]B is bound ligand concentration and nH is the Hill coefficient (Hill, The possible effects of the aggregation of the molecules of haemoglobin on its dissociation curves. J Physiol 1910; 40:4-8). […] Best fit equations were calculated using KaleidaGraph (Synergy Software).

avidin [1] = molecular target: T2, avidin (Gallus gallus, UniProt P02701); assay: HABA-competitive binding determination, avidin-HABA complex; parameters: purchased Pierce; species or system chicken; conditions: linear (uncyclized) peptides; read-out: dissociation constant, avidin, linear peptides
Experimental: as §1

NeutrAvidin [2] = molecular target: T3, NeutrAvidin (Gallus gallus, UniProt P02701); assay: HABA-competitive binding determination, HABA-NeutrAvidin complex; conditions: linear (uncyclized) peptides; read-out: dissociation constant, Neutravidin, linear peptides
T3 construct: purchased Pierce
Experimental: as §1

NeutrAvidin [3] = molecular target: T3, NeutrAvidin; assay: HABA saturation of NeutrAvidin; type: binding; conditions: calculated value, supplementary material; read-out: dissociation constant of the HABA-NeutrAvidin complex
Experimental: as §1

avidin [4] = molecular target: T2, avidin; conditions: pH of 7, literature value; read-out: Kd HABA-avidin; cited from earlier work
NeutrAvidin [5] = molecular target: T3, NeutrAvidin; assay: Phage-displayed cyclic peptide selection against NeutrAvidin (clone sequencing); type: binding
Experimental: XL1-Blue E. coli containing the phagemid library vector were grown from glycerol stocks in 5 mL of 2×YT media with glucose and ampicillin selection at 37° C. Titered M13KO7 helper phage (5×10^9 pfu) was added when the culture reached an OD600 of 0.8 and was incubated for 1 hour. The culture was then pelleted via centrifugation, the cells were resuspended in 2×YT with ampicillin and kanamycin, and allowed to grow overnight. After 10 hours of incubation, the culture was again pelleted by centrifugation and the supernatant was filtered through a 0.45 μm sterile filter to remove trace E. coli. The phage was isolated from the supernatant by PEG (polyethylene glycol) precipitation. 1 mL of 20% PEG in 2.5 M NaCl was added to the 5 mL of filtered media. The resulting precipitate was isolated by centrifugation at 18,000 rcf. The phage pellet was resuspended in 5 mL of Tris Buffer A (20 mM Tris-HCl, 150 mM NaCl, and 0.05% Tween 20 at pH=7.4). The phage was then re-precipitated with 1 mL PEG/NaCl, isolated via centrifugation, and resuspended in 1 mL of Tris Buffer A.
100 μL of the phage solution was then exposed to a well of a NeutrAvidin coated polystyrene plate (Pierce) that had been previously rinsed with Tris Buffer A. After 1 hour of incubation, the phage solution was discarded and the well was washed six times for 10 minutes each with 200 μL of Tris Buffer A. Bound phage was eluted with 200 μL of 0.2 M glycine (pH=2.0) by incubation for 10 minutes, followed by neutralization with 40 μL of 2 M Tris base. The input phage and eluted phage were then used to infect two 5 mL tetracycline-selected cultures of XL1 Blue E. coli (OD600=0.8). After 1 hour, the cells were pelleted and resuspended in 5 mL of 2×YT with ampicillin and glucose. […]
Phage display selection and synthesis of NeutrAvidin binding peptides. […] The library was expressed as a fusion to the gene III protein of M13 filamentous bacteriophage, C-terminal to the periplasmic signaling sequence and N-terminal to a peptide linker and the rest of the gene III protein (see supplementary material). […]

T2 sequence (P02701 25-152): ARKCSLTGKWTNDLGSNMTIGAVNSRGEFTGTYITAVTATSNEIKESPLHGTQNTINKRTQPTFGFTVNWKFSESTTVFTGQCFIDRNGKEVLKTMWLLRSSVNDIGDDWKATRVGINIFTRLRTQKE
T3 sequence (P02701 25-152): as above
T1 sequence (P22629 25-183): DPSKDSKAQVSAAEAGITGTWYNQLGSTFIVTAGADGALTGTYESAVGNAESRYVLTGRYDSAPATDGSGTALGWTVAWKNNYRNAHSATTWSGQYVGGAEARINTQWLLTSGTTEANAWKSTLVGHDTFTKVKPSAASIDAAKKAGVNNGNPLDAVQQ

Row | Compound | Kd (streptavidin) [µM] | Kd (avidin [1]) [µM] | Kd (NeutrAvidin [2]) [µM] | other results
1 | CC(C)C[C@@H]1NC(=O)[C@H](CC(=O)O)NC(=O)[C@@H](N)CSSC[C@@H](C(=O)NCC(N)=O)NC(=O)[C@H](Cc2c[nH]c3ccccc23)NC(=O)[C@@H]2CCCN2C(=O)[C@H](CO)NC(=O)[C@H](C)NC1=O [DLASPW] (H-CDLASPWCG-NH2; disulfide 1-8; N-terminus assumed) | > 5000 |  |  | 
2 | C[C@@H]1NC(=O)[C@H](CCCNC(=N)N)NC(=O)[C@H](CC(=O)O)NC(=O)[C@@H](N)CSSC[C@@H](C(=O)NCC(N)=O)NC(=O)[C@H](Cc2ccc(O)cc2)NC(=O)[C@@H]2CCCN2C(=O)[C@H](CO)NC1=O [DRASPY] (H-CDRASPYCG-NH2; disulfide 1-8) | > 5000 | < 500 | < 500 | 
3 | C[C@@H]1NC(=O)[C@H](CCCNC(=N)N)NC(=O)[C@H](CC(=O)O)NC(=O)[C@@H](N)CSSC[C@@H](C(=O)NCC(N)=O)NC(=O)[C@H](Cc2ccc(O)cc2)NC(=O)[C@@H]2CCCN2C(=O)[C@H]([C@@H](C)O)NC1=O [DRATPY] (H-CDRATPYCG-NH2; disulfide 1-8) | > 5000 | < 500 | < 500 | 
4 | O=C(O)c1ccccc1N=Nc1ccc(O)cc1 [HABA, 4′-hydroxyazobenzene-2-carboxylic acid] |  |  |  | Kd (NeutrAvidin [3]): 15 µM; Kd (avidin [4]): 7 µM
5 | CDRASPWC [not synthesized] |  |  |  | % of clones, Round 3 (NeutrAvidin [5]; round 3, 15 clones sequenced): 20%; % of clones, Round 4 (NeutrAvidin [5]; round 4, 26 clones sequenced): 8%; % of clones, Round 5 (NeutrAvidin [5]; round 5, 40 clones sequenced): 5%

Reference: patent US20080032340A1, “Peptide motifs for binding avidin or neutravidin” (University of Arizona, priority 2006, published 2008)
